pIC50: −log10 of the molar value.
Target: TACE (Homo sapiens (Human), UniProt P78536)
Assay: TACE inhibition test (in vitro)
Assay type: biochemical
Settings: fluorescent synthetic substrate, 37° C., 1.5 hours
Method: The nucleotide sequence of TACE has been reported by Moss et al. (Moss, M. L. et al., Nature 1997, 385, 733-736). Accordingly, the cDNA of TACE was obtained according to the prescribed method from THP-1 cells or the like, and then incorporated the cDNA into an expression vector. Next, this vector was transformed into mammalian cells or insect cells, and TACE expression was obtained.
The TACE inhibition test was carried out by measuring TACE activity in the presence and the absence of the test substance using the thus-obtained TACE as an enzyme, and a fluorescent synthetic substrate Nma(N-methylanthranilic acid)-Leu-Ala-Gln-Ala-Val-Arg-Ser-Ser-Lys(Dnp(dinitrophenyl))-D-Arg-NH2 (SEQ ID NO: 1) including the TACE-cleaved sequence of a membrane-bound TNF as a substrate. The TACE inhibition test method is shown below.
Namely, 90 μL of an enzyme solution prepared with an assay buffer A (50 mM tris-hydrochloric acid buffer (pH 7.5) including 200 mM sodium chloride, 5 mM calcium chloride, 10 μM zinc sulfate, and 2 mg/mL bovine serum albumin) and 90 μL of a fluorescent synthetic substrate prepared with an assay buffer B (50 mM tris-hydrochloric acid buffer (pH 7.5) including 200 mM sodium chloride, 5 mM calcium chloride, 10 μM zinc sulfate, and 0.05% PLURONIC F-68) were mixed together, and reacted at 37° C. for 1.5 hours. Enzyme activity was then determined by measuring with a fluorescence intensity meter (Labsystems, Fluoroskan Ascent) at an excitation wavelength of 355 nm and a measurement wavelength of 460 nm.
From the enzyme activity in the presence or the absence of the test substance, the inhibition rate was determined, and the 50% inhibitiory concentration (IC50) of the test substance was calculated.

Sequence of TACE (P78536 215-824): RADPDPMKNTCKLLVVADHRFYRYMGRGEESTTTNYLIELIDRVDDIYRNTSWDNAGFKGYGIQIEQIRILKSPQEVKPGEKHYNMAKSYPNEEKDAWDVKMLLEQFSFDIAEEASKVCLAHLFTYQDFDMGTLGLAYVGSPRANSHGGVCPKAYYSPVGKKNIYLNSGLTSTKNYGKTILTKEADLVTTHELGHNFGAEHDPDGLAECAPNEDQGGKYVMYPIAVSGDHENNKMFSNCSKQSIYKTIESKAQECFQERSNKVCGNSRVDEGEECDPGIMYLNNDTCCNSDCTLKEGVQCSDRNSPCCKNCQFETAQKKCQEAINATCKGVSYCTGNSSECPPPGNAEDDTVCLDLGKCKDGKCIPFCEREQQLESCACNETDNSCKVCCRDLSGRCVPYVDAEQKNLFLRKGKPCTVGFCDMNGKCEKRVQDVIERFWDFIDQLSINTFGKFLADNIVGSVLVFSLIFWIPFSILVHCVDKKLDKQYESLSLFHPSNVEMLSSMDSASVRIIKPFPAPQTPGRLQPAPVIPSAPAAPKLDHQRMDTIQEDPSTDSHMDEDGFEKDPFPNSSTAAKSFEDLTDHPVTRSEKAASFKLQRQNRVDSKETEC

| Structure (SMILES) | pIC50 |
| --- | --- |
| O=C1NC(=O)C(Cn2ccccc2=O)(c2ccccc2)N1 (centres unmarked) [Compound I-46, 5-[(2-oxopyridin-1(2H)-yl)methyl]-5-phenylimidazolidine-2,4-dione] | > 7.00 |
| COc1ccc(C2(Cn3ccccc3=O)NC(=O)NC2=O)cc1 (centres unmarked) [Compound I-47, 5-(4-methoxyphenyl)-5-[(2-oxopyridin-1(2H)-yl)methyl]imidazolidine-2,4-dione] | > 7.00 |
| O=C1NC(=O)C(Cn2cccc(F)c2=O)(c2ccc(F)cc2)N1 (centres unmarked) [Compound I-48, 5-[(3-fluoro-2-oxopyridin-1(2H)-yl)methyl]-5-(4-fluorophenyl)-imidazolidine-2,4-dione] | > 7.00 |
| O=C1NC(=O)C(Cn2cccc(F)c2=O)(c2ccc(-c3ccccc3)cc2)N1 (centres unmarked) [Compound I-49, 5-([1,1′-biphenyl]-4-yl)-5-[(3-fluoro-2-oxopyridin-1(2H)-yl)methyl]imidazolidine-2,4-dione] | > 7.00 |
| O=C1NC(=O)C(Cn2cccc(Cl)c2=O)(c2ccccc2)N1 (centres unmarked) [Compound I-50, 5-[(3-chloro-2-oxopyridin-1(2H)-yl)methyl]-5-phenylimidazolidine-2,4-dione] | > 7.00 |
| O=C1NC(=O)C(Cn2cccc(Cl)c2=O)(c2cc3ccccc3o2)N1 (centres unmarked) [Compound I-51, 5-(benzofuran-2-yl)-5-[(3-chloro-2-oxopyridin-1(2H)-yl)methyl]imidazolidine-2,4-dione] | > 7.00 |
| COc1ccc(C2(Cn3cccc(Br)c3=O)NC(=O)NC2=O)cc1 (centres unmarked) [Compound I-52, 5-[(3-bromo-2-oxopyridin-1(2H)-yl)methyl]-5-(4-methoxyphenyl)imidazolidine-2,4-dione] | > 7.00 |
| CCc1cccn(CC2(c3ccc(OC)cc3)NC(=O)NC2=O)c1=O (centres unmarked) [Compound I-53, 5-[(3-ethyl-2-oxopyridin-1(2H)-yl)methyl]-5-(4-methoxyphenyl)imidazolidine-2,4-dione] | 6.00 to 7.00 |
| Cc1cccn(CC2(c3cccc(O)c3)NC(=O)NC2=O)c1=O (centres unmarked) [Compound I-54, 5-(3-hydroxyphenyl)-5-[(3-methyl-2-oxopyridin-1(2H)-yl)methyl]imidazolidine-2,4-dione] | 6.00 to 7.00 |
| Cc1cccn(CC2(c3ccncc3)NC(=O)NC2=O)c1=O (centres unmarked) [Compound I-55] | > 7.00 |
| Cc1cccn(CC2(c3ccc4ccccc4c3)NC(=O)NC2=O)c1=O (centres unmarked) [Compound I-56] | > 7.00 |
| Cc1cccn(CC2(c3cccc(Br)c3)NC(=O)NC2=O)c1=O (centres unmarked) [Compound I-57] | > 7.00 |
| Cc1cccn(CC2(c3cccc(OCc4ccccc4)c3)NC(=O)NC2=O)c1=O (centres unmarked) [Compound I-58] | > 7.00 |
| Cc1cccn(CC2(c3ccc4c(c3)OCCO4)NC(=O)NC2=O)c1=O (centres unmarked) [Compound I-59] | > 7.00 |
| COc1ccccc1C1(Cn2cccc(C)c2=O)NC(=O)NC1=O (centres unmarked) [Compound I-60] | 6.00 to 7.00 |
| Cc1cccn(CC2(c3ccc(F)cc3F)NC(=O)NC2=O)c1=O (centres unmarked) [Compound I-61] | 6.00 to 7.00 |
| Cc1cccn(CC2(c3cccc(C#CC(C)(C)C)c3)NC(=O)NC2=O)c1=O (centres unmarked) [Compound I-63] | 6.00 to 7.00 |
| Cc1cccn(CC2(c3ccc4c(c3)OCO4)NC(=O)NC2=O)c1=O (centres unmarked) [Compound I-65] | > 7.00 |
| Cc1cccn(CC2(c3ccc(C4CCCCC4)cc3)NC(=O)NC2=O)c1=O (centres unmarked) [Compound I-66] | > 7.00 |
| Cc1cccn(CC2(c3cccc(OC(F)(F)F)c3)NC(=O)NC2=O)c1=O (centres unmarked) [Compound I-67] | > 7.00 |
| Cc1cccn(CC2(c3ccccc3OCc3ccccc3)NC(=O)NC2=O)c1=O (centres unmarked) [Compound I-68] | 6.00 to 7.00 |
| COc1ccc(F)cc1C1(Cn2cccc(C)c2=O)NC(=O)NC1=O (centres unmarked) [Compound I-69] | > 7.00 |
| COc1cc(C)c(Cl)cc1C1(Cn2cccc(C)c2=O)NC(=O)NC1=O (centres unmarked) [Compound I-70] | 6.00 to 7.00 |
| Cc1cccn(CC2(c3cccc(C#CCN(C)C)c3)NC(=O)NC2=O)c1=O (centres unmarked) [Compound I-71] | > 7.00 |
| COc1ccc(-c2ccc(C3(Cn4cccc(C)c4=O)NC(=O)NC3=O)cc2)cc1 (centres unmarked) [Compound I-72] | > 7.00 |
| COc1cccc(-c2ccc(C3(Cn4cccc(C)c4=O)NC(=O)NC3=O)cc2)c1 (centres unmarked) [Compound I-73] | > 7.00 |

From patent US10000476B2, “Pyridone derivative, pharmaceutical containing the same and methods of use thereof” (KAKEN PHARMACEUTICAL CO., LTD., priority 2011, dated 2018)
